Measured values reported in patent publication US20060069123A1, “Substituted dipiperidine CCR2 antagonists” (priority 2004, published 2006).
Read-outs that look alike come from different tables or passages of the source.

Assays:
CCR2 = molecular target: T1, CCR2 (Homo sapiens, UniProt P41597)
T1 sequence (P41597 1-360 isoform P41597-2): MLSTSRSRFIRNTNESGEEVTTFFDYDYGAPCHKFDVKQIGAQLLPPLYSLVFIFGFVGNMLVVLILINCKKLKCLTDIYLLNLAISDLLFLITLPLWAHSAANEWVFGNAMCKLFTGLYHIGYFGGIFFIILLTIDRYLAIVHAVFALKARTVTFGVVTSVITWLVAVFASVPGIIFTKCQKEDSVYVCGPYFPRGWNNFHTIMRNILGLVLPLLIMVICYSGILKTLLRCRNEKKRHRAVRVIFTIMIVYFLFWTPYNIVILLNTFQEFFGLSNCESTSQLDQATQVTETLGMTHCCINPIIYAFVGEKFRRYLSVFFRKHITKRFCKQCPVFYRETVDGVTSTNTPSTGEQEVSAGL

THP-1 cells [1] = conditions: Homo sapiens, THP-1, read-out: Inhibition of MCP-1 Induced Calcium Ion Influx IC50
THP-1 cells [2] = experiment: MCP-1 Induced Chemotaxis in THP-1 Cells; assay type: cell-based; conditions: Homo sapiens; THP-1 cells, MCP-1 0.01 μg/mL, 3 hours; read-out: Inhibition of MCP-1 Induced Chemotaxis IC50

Row | SMILES | IC50 (CCR2) [µM] | IC50 (THP-1 cells [1]) [µM] | IC50 (THP-1 cells [2]) [µM]
1 | O=C(c1cc2cc(Cl)ccc2o1)N1CCC(C(CO)N2CCC(c3c[nH]c4ccccc34)CC2)CC1 (stereo not drawn) [Cpd 157, (5-chloro-benzofuran-2-yl)-(4-{2-hydroxy-1-[4-(1H-indol-3-yl)-piperidin-1-yl]-ethyl}-piperidin-1-yl)-methanone] | 0.44 | 0.32 | 0.46
2 | O=C(c1cc2ccccc2o1)N1CCC(C(CO)N2CCC(c3c[nH]c4ccccc34)CC2)CC1 (stereo not drawn) [Cpd 154, benzofuran-2-yl-(4-{2-hydroxy-1-[4-(1H-indol-3-yl)-piperidin-1-yl]-ethyl}-piperidin-1-yl)-methanone] | 0.27 | 4.8 | 0.16
3 | O=C(O)C(C1CCN(C(=O)Nc2cccc(F)c2)CC1)N1CCC(c2c[nH]c3ccccc23)CC1 (stereo not drawn) [Cpd 91, [1-(3-fluoro-phenylcarbamoyl)-piperidin-4-yl]-[4-(1H-indol-3-yl)-piperidin-1-yl]-acetic acid] | 0.305 | 0.89 | 0.27
4 | Nc1ccc2[nH]cc(C3CCN(C(CO)C4CCN(C(=O)/C=C/c5cc(F)c(F)c(F)c5)CC4)CC3)c2n1 (stereo not drawn) [Cpd 191, (2E)-1-(4-{1-[4-(5-amino-1H-pyrrolo[3,2-b]pyridin-3-yl)-piperidin-1-yl]-2-hydroxy-ethyl}-piperidin-1-yl)-3-(3,4,5-trifluoro-phenyl)-propenone] | 0.1 | 0.17 | 0.15
5 | O=C(/C=C/c1ccc(Cl)c(Cl)c1)N1CCC(C(CO)N2CCC(c3nc4ccccc4[nH]3)CC2)CC1 (stereo not drawn) [Cpd 176, (2E)-1-(4-{1-[4-(1H-benzoimidazol-2-yl)-piperidin-1-yl]-2-hydroxy-ethyl}-piperidin-1-yl)-3-(3,4-dichloro-phenyl)-propenone] | 0.07 | 2.61 | 0.09
6 | O=C(/C=C/c1cc(F)c(F)c(F)c1)N1CCC([C@H](CO)N2CCC(c3c[nH]c4ccccc34)CC2)CC1 [Cpd 188, (2E)-1-(4-{(1R)-2-hydroxy-1-[4-(1H-indol-3-yl)-piperidin-1-yl]-ethyl}-piperidin-1-yl)-3-(3,4,5-trifluoro-phenyl)-propenone] | 0.0295 | 0.01 | 0.02
7 | O=C(/C=C/c1cc(F)c(F)c(F)c1)N1CCC(C(CO)N2CCC(c3c[nH]c4ncccc34)CC2)CC1 (stereo not drawn) [Cpd 153, (2E)-1-(4-{2-hydroxy-1-[4-(1H-pyrrolo[2,3-b]pyridin-3-yl)-piperidin-1-yl]-ethyl}-piperidin-1-yl)-3-(3,4,5-trifluoro-phenyl)-propenone] | 0.003 | 0.007 | 0.009
8 | O=C(Nc1ccc(Cl)c(Cl)c1)N1CCC(C(CO)N2CCC(c3c[nH]c4ccccc34)CC2)CC1 (stereo not drawn) [Cpd 123, 4-{2-hydroxy-1-[4-(1H-indol-3-yl)-piperidin-1-yl]-ethyl}-piperidine-1-carboxylic acid (3,4-dichloro-phenyl)-amide] | 0.009 | 0.004 | 0.005
9 | O=C(O)C(C1CCN(C(=O)/C=C/c2ccsc2)CC1)N1CCC(c2c[nH]c3ccccc23)CC1 (stereo not drawn) [Cpd 104, [4-(1H-indol-3-yl)-piperidin-1-yl]-{1-[(2E)-3-thiophen-3-yl-acryloyl]-piperidin-4-yl}-acetic acid] | 0.09 | 1.01 | 0.16
10 | COc1ccc(C2CCN(C(CO)C3CCN(C(=O)/C=C/c4ccc(F)c(F)c4)CC3)CC2)cc1 (stereo not drawn) [Cpd 138, (2E)-3-(3,4-difluoro-phenyl)-1-(4-{2-hydroxy-1-[4-(4-methoxy-phenyl)-piperidin-1-yl]-ethyl}-piperidin-1-yl)-propenone] | 0.172 | 1.29 | 0.217
11 | COc1ccc(C2CCN(C(CO)C3CCN(C(=O)/C=C/c4ccccc4)CC3)CC2)cc1 (stereo not drawn) [Cpd 159, (2E)-1-(4-{2-hydroxy-1-[4-(4-methoxy-phenyl)-piperidin-1-yl]-ethyl}-piperidin-1-yl)-3-phenyl-propenone] | 0.27 | 2.1 | 0.86
12 | O=C(O)C(C1CCN(C(=O)Nc2ccc(SC(F)(F)F)cc2)CC1)N1CCC(c2c[nH]c3ccccc23)CC1 (stereo not drawn) [Cpd 142, [4-(1H-indol-3-yl)-piperidin-1-yl]-[1-(4-trifluoromethylsulfanyl-phenylcarbamoyl)-piperidin-4-yl]-acetic acid] | 0.005 | 0.03 | 0.06
13 | CSc1cccc(NC(=O)N2CCC(C(C(=O)O)N3CCC(c4c[nH]c5ccccc45)CC3)CC2)c1 (stereo not drawn) [Cpd 144, [4-(1H-indol-3-yl)-piperidin-1-yl]-[1-(3-methylsulfanyl-phenylcarbamoyl)-piperidin-4-yl]-acetic acid] | 0.05 | 1.3 | 0.5
14 | COc1ccc2c(C3CCN(C(CO)C4CCN(C(=O)/C=C/c5ccc(Cl)c(Cl)c5)CC4)CC3)c[nH]c2c1 (stereo not drawn) [Cpd 163, (2E)-3-(3,4-dichloro-phenyl)-1-(4-{2-hydroxy-1-[4-(6-methoxy-1H-indol-3-yl)-piperidin-1-yl]-ethyl}-piperidin-1-yl)-propenone] | 0.03 | 0.01 | 0.15
15 | O=C(/C=C/c1cc(F)cc(F)c1)N1CCC(C(CO)N2CCC(c3ccc4c(c3)OCO4)CC2)CC1 (stereo not drawn) [Cpd 190] | 0.21 | 0.25 | 0.2
16 | Cc1ccc(NC(=O)N2CCC(C(C(=O)O)N3CCC(c4c[nH]c5ccccc45)CC3)CC2)cc1F (stereo not drawn) [Cpd 105, [1-(3-fluoro-4-methyl-phenylcarbamoyl)-piperidin-4-yl]-[4-(1H-indol-3-yl)-piperidin-1-yl]-acetic acid] | 0.09 | 0.13 | 0.01
17 | O=C(/C=C/c1cc(F)c(F)c(F)c1)N1CCC(C(CO)N2CCC(c3ccc(F)cc3)CC2)CC1 (stereo not drawn) [Cpd 193] | 0.14 | 0.14 | 1.3
18 | O=C(O)c1ccc2[nH]cc(C3CCN(C(C(=O)O)C4CCN(C(=O)/C=C/c5cc(F)c(F)c(F)c5)CC4)CC3)c2c1 (stereo not drawn) [Cpd 147, 3-[1-(carboxy-{1-[(2E)-3-(3,4,5-trifluoro-phenyl)-acryloyl]-piperidin-4-yl}-methyl)-piperidin-4-yl]-1H-indole-5-carboxylic acid] | 0.15 | 0.6 | 0.04
19 | CS(=O)(=O)Nc1ccc2[nH]cc(C3CCN(C(COC(=O)/C=C/c4cc(F)cc(F)c4)C4CCN(C(=O)/C=C/c5cc(F)cc(F)c5)CC4)CC3)c2c1 (stereo not drawn) [Cpd 199, (2E)-3-(3,5-difluoro-phenyl)-acrylic acid 2-{1-[(2E)-3-(3,5-difluoro-phenyl)-acryloyl]-piperidin-4-yl}-2-[4-(5-methanesulfonylamino-1H-indol-3-yl)-piperidin-1-yl]-ethyl ester] | 0.02 | 0.004 | 0.03
20 | O=C(/C=C/c1ccc([N+](=O)[O-])cc1)OCC(C1CCN(C(=O)/C=C/c2ccc([N+](=O)[O-])cc2)CC1)N1CCC(c2c[nH]c3ccccc23)CC1 (stereo not drawn) [Cpd 251, (2E)-3-(4-nitro-phenyl)-acrylic acid 2-[4-(1H-indol-3-yl)-piperidin-1-yl]-2-{1-[(2E)-3-(4-nitro-phenyl)-acryloyl]-piperidin-4-yl}-ethyl ester] | 0.39 | 0.56 | 0.17
